Target: T1, delF508-CFTR (Homo sapiens, UniProt P13569, DEL508-508)
T1 construct: Unaltered CFBE41o− cells were used as the model; endogenous in cells; host or cells: CFBE41o- human CF bronchial epithelial cells (delF508 homozygous, not overexpressing)
Experiment: SPQ halide-sensitive fluorescence dye profiling assay (rescue of halide efflux)
Type: cell-based
Conditions: for EC50 / EC50 (μM): SPQ assay, 8-point concentration-response curve, CFBE41o− cells; for Emax: VX-809 at 3 μM treated as 100% efficacy; for Efficacy Comparison to 3 μM VX-809: compared to VX-809 at 3 μM; for potency and efficacy versus VX-809 in SPQ profiling: compounds advanced to further profiling
Protocol: The method of profiling can include detecting the rescue of halide efflux from a cell. The step of detecting a rescue of halide efflux from the cell can be monitored using the halide quenched dye 6-methoxy-N-(3-sulfopropyl)-quinolinium (SPQ, Molecular Probes Inc., Eugene, Oreg.). In this method, cells are treated with a compound as described herein for a period of time (e.g., 48 hours). The rescue or correction of halide efflux is then detected using the SPQ assay with the halide dye. […] Optionally, the halide efflux is chloride efflux. The method of screening can further comprise performing the method with multiple concentrations of the compound.
The compounds were initially subjected to the SPQ halide-sensitive fluorescence dye profiling assay for rescue or correction of membrane chloride ion permeability or transport with an 8-point concentration-response curve. The EC50 values for the compounds described herein were determined and compared to the efficacy of the industry standard Vertex 809 (VX-809; Vertex Pharmaceuticals, Cambridge, Mass.) at 3 μM, which is the maximally effective profiling dose for VX-809 (Table 1). The VX-809 dosage at 3 μM was treated as having 100% efficacy in the comparison.
To perform the SPQ high throughput screening assay, CFBE41o− cells were seeded into 96-well microtiter plates and were loaded with the fluorescent halide-sensitive dye, SPQ, in serum-containing culture medium. Certain wells were loaded with known positive control corrector molecules, including VX-809. The test compounds were loaded into wells and were tested in triplicate wells at a 10 μM dose and incubated over 48 hours at room temperature. During the 48 hour period, SPQ was absorbed. Plates were washed in a sodium chloride (NaCl) based Ringer and read once over two minutes to set the baseline SPQ fluorescence activity. Then, NaCl was replaced by sodium nitrate (NaNO3) based Ringer. The plates were read twice over four minutes. The primary high throughput screen (HTS) data were analyzed to detect any function of rescued delF508-CFTR under basal conditions. The plate was read up to two times to complete the SPQ HTS assay.

T1 sequence (P13569 with tags, fused parts or gaps DEL508-508): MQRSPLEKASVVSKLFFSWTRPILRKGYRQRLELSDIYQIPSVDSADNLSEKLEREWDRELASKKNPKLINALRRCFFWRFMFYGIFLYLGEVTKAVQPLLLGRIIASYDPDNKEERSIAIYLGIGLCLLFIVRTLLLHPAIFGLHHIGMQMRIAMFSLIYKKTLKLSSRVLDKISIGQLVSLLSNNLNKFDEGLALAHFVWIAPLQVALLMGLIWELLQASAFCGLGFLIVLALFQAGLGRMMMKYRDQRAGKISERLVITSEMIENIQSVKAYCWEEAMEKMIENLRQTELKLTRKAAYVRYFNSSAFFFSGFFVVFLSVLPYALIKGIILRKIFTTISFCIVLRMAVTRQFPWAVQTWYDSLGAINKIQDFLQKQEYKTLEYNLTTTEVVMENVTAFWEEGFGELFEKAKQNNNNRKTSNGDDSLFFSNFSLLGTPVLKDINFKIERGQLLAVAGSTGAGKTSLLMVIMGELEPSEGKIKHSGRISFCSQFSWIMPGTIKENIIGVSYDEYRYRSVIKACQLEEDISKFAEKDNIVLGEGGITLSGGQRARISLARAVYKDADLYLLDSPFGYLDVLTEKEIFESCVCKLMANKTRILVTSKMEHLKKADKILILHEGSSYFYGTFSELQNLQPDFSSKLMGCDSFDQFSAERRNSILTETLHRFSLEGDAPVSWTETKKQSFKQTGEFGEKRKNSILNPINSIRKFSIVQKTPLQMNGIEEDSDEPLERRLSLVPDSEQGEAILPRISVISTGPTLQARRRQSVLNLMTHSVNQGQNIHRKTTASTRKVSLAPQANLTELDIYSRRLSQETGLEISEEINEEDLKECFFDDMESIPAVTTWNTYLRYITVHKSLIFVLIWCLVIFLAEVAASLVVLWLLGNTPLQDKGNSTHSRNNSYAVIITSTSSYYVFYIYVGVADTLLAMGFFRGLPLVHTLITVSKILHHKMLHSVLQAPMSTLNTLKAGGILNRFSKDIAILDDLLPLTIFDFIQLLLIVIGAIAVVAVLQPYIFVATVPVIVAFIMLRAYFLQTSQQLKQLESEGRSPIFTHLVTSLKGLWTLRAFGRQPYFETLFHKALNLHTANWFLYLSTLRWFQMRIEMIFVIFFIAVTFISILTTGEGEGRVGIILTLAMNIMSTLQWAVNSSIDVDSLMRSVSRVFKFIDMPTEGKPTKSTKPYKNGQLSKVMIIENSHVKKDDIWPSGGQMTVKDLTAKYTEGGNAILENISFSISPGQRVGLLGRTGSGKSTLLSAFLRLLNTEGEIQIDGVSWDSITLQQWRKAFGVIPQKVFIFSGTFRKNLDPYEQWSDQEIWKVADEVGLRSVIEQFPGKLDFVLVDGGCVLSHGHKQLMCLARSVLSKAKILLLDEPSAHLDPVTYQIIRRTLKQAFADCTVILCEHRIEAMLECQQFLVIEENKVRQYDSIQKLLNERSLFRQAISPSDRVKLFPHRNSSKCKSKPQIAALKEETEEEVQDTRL

| SMILES | EC50 | Emax | Efficacy Comparison to 3 μM VX-809 | EC50 (μM) | potency and efficacy versus VX-809 in SPQ profiling |
| --- | --- | --- | --- | --- | --- |
| COc1ccc(-c2c(C)nn3c(C)c(C(=O)O)nnc23)cc1OC [Compound C-6] | 9.9 µM | 170% | 3-fold greater than VX-809 | – | – |
| CNC(=O)c1nnc2c(-c3ccc(Cl)c(Cl)c3)c(C)nn2c1C [Compound C-30] | 26.3 µM | 50% | Less than VX-809 | – | – |
| CCOC(=O)c1nnc2c(-c3ccc(OC4CCCC4)cc3)c(C)nn2c1C [Compound C-73.1] | – | -75% | – | – | – |
| CCCOc1cc(-c2c(C)nn3c(C)c(C(=O)O)nnc23)ccc1Cl [Compound C-72] | 2.3 µM | 90% | – | – | – |
| Cc1nn2c(C)c(C(N)=O)nnc2c1-c1ccc(Cl)c(Cl)c1 [Compound C-29] | – | 0% | – | No effect | – |
| Cc1nn2c(C)c(C(=O)O)nnc2c1-c1cc(Cl)cc(Cl)c1 [Compound C-22] | 1.3 µM | 130% | 12-fold greater than VX-809 | – | superior potency and efficacy to VX-809 |
| Cc1nn2c(C)c(C(=O)O)nnc2c1-c1ccc2c(c1)OCO2 [Compound C-57] | 12 µM | 20% | – | – | – |
| Cc1nn2c(C)c(C(=O)C(=O)O)nnc2c1-c1ccc(Cl)c(Cl)c1 [Compound C-32] | 6 µM | 160% | 2.5-fold greater than VX-809 | – | – |
| Cc1nn2c(C)c(C(=O)O)nnc2c1Cc1ccc(Cl)c(Cl)c1 [Compound C-53] | – | 75% | Less than VX-809 | – | – |
| Cc1nnc(-c2nnc3c(-c4ccc(Cl)c(Cl)c4)c(C)nn3c2C)o1 [Compound C-42] | – | 5% | – | No effect | – |
| Cc1nn2cc(C(=O)O)nnc2c1-c1ccc(Cl)cc1 [Compound C-3] | 11.5 µM | 200% | Equivalent to VX-809 | – | – |
| CCOC(=O)c1ccc2c(-c3ccc(Cl)c(Cl)c3)noc2n1 [Compound C-68.1] | – | 20% | – | – | – |
| Cc1nn2c(C)c(C(=O)OC(C)C)nnc2c1-c1ccc(Cl)c(Cl)c1 [Compound C-49] | 2 µM | 50% | Equivalent to VX-809 | – | – |
| Cc1nn2c(C)c(C(=O)O)nnc2c1Cc1ccccc1 [Compound C-52] | 20 µM | 70% | Less than VX-809 | – | – |
| CCOc1ccc(-c2c(C)nn3c(C)c(C(=O)O)nnc23)cc1 [Compound C-7] | 7 µM | 220% | 3-fold greater than VX-809 | – | – |
| CCCCOc1ccc(-c2c(C)nn3c(C)c(C(=O)O)nnc23)cc1 [Compound C-54] | 6.7 µM | 125% | 2-fold greater than VX-809 | – | – |
| Cc1nn2c(C)c(C(=O)OC(C)C)nnc2c1-c1ccc(Cl)cc1 [Compound C-21] | 1.1 µM | 50% | 2.5-fold greater than VX-809 | – | – |
| CCOC(=O)c1nnc2c(-c3ccc(OC)c(OC)c3)c(C)nn2c1C [Compound C-16] | 2.2 µM | 80% | 2-fold greater than VX-809 | – | – |
| CCOC(=O)c1nnc2c(-c3ccc(Cl)cc3)c(C)nn2c1C(=O)OCC [Compound C-28.1] | – | 0% | – | No effect | – |
| CCS(=O)(=O)N(c1nnc2c(-c3ccc(Cl)c(Cl)c3)c(C)nn2c1C)S(=O)(=O)CC [Compound C-71.1] | – | 0% | – | – | – |
| CCOC(=O)c1cn2nc(C)c(-c3ccc(Cl)cc3)c2nn1 [Compound C-13] | – | 0% | – | No effect | – |
| Cc1nn2c(C)c(C(=O)O)nnc2c1-c1ccc(O)cc1 [Compound C-9] | 17.8 µM | 120% | Less than VX-809 | – | – |
| Cc1nn2c(C)c(C(=O)O)nnc2c1-c1ccc(OC(C)(C)C)cc1 [Compound C-56] | 11.6 µM | 20% | Less than VX-809 | – | – |
| CCOC(=O)c1nnc2c(-c3ccc(Cl)c(Cl)c3)c(C)nn2c1C(=O)OCC [Compound C-26.1] | – | 0% | – | No effect (toxic | – |
| CCS(=O)(=O)Cc1nnc2c(-c3ccc(Cl)c(Cl)c3)c(C)nn2c1C [Compound C-71] | 6.9 µM | 130% | Equivalent to VX-809 | – | – |

| SMILES | EC50 | Emax | Efficacy Comparison to 3 μM VX-809 | EC50 (μM) | potency and efficacy versus VX-809 in SPQ profiling |
| --- | --- | --- | --- | --- | --- |
| Cc1nn2c(C)c(C(=O)OC(C)(C)C)nnc2c1-c1ccc(Cl)c(Cl)c1 [Compound C-34] | 0.58 µM | 0% | – | – | – |
| O=C(O)c1ccc2c(-c3ccc(Cl)c(Cl)c3)n[nH]c2n1 [Compound C-66] | – | 25% | – | – | – |
| CCOC(=O)c1nnc2c(-c3ccc(OCC)cc3)c(C)nn2c1C [Compound C-17] | > 30 µM | 75% | Equivalent to VX-809 | – | – |
| Cc1nn2c(C)c(C(=O)O)nnc2c1-c1ccc(F)c(F)c1 [Compound C-23] | – | 110% | Equivalent to VX-809 | – | – |
| CCOC(=O)c1nnc2c(-c3ccc(O)cc3)c(C)nn2c1C [Compound C-19] | – | 0% | – | No effect | – |
| Cc1nn2c(C)c(-c3nnco3)nnc2c1-c1ccc(Cl)c(Cl)c1 [Compound C-43] | 11 µM | 50% | Equivalent to VX-809 | – | – |
| Cc1nn2c(N)c(C(=O)O)nnc2c1-c1ccc(Cl)c(Cl)c1 [Compound C-25] | 0.83 µM | 100% | 10-fold greater than VX-809 | – | superior potency and efficacy to VX-809 |
| COc1cc(-c2c(C)nn3c(C)c(C(=O)O)nnc23)ccc1Cl [Compound C-59.1] | 10.5 µM | 40% | Less than VX-809 | – | – |
| Cc1nn2c(C)c(C(=O)O)nnc2c1-c1ccc(OC(C)C)cc1 [Compound C-55] | 0.66 µM | 100% | 10-fold greater than VX-809 | – | superior potency and efficacy to VX-809 |
| CCOC(=O)c1cn2ncc(-c3ccc(Cl)cc3)c2nn1 [Compound C-14] | – | 0% | – | No effect | – |
| CCCOC(=O)c1nnc2c(-c3ccc(Cl)cc3)c(C)nn2c1C [Compound C-20] | 2 µM | 100% | 2.5-fold greater than VX-809 | – | – |
| Cc1nn2c(C)c(C(=O)O)nnc2c1-c1ccc2c(c1)OCCO2 [Compound C-58] | – | 100% | – | – | – |
| CCCOc1ccc(-c2c(C)nn3c(C)c(C(=O)OCC)nnc23)cc1 [Compound C-18] | 3.1 µM | 20% | Less than VX-809 | – | – |
| Cc1nn2c(C)c(C(=O)N(C)C)nnc2c1-c1ccc(Cl)c(Cl)c1 [Compound C-31] | – | 0% | – | No effect | – |
| Cc1nn2c(C)c(C(=O)O)nnc2c1C1CCCCC1 [Compound C-51] | 3.4 µM | 50% | Equivalent to VX-809 | – | – |
| Cc1nn2c(C)c(CS(C)(=O)=O)nnc2c1-c1ccc(Cl)c(Cl)c1 [Compound C-70] | 3.7 µM | 110% | 2-fold greater than VX-809 | – | – |
| Cc1nn2c(C)c(C(=O)O)cnc2c1-c1ccc(Cl)c(Cl)c1 [Compound C-45] | 2.5 µM | 50% | Equivalent to VX-809 | – | – |
| CCS(=O)(=O)NC(=O)c1nnc2c(-c3ccc(Cl)c(Cl)c3)c(C)nn2c1C [Compound C-37] | 5.1 µM | 80% | Equivalent to VX-809 | – | – |
| Cc1nn2c(N)c(C(=O)O)nnc2c1-c1ccc(Cl)cc1 [Compound C-27] | 3.3 µM | 90% | 2-fold greater than VX-809 | – | – |
| COc1ccc(Cn2nc(-c3ccc(Cl)c(Cl)c3)c3ccc(C(=O)O)nc32)cc1 [Compound C-66.2] | 11 µM | 100% | – | – | – |
| Cc1nn2c(C)c(-c3nnn[nH]3)nnc2c1-c1ccc(Cl)c(Cl)c1 [Compound C-40] | – | 0% | – | No effect (toxic | – |
| CCOC(=O)c1ccc2c(-c3ccc(Cl)c(Cl)c3)n[nH]c2n1 [Compound C-66.1] | – | 0% | – | No effect | – |
| CCOc1ccc(-c2c(C)nn3c(C)c(C(=O)O)nnc23)cc1Cl [Compound C-60] | – | 0% | – | No effect | – |
| COC(=O)C(=O)c1nnc2c(-c3ccc(Cl)c(Cl)c3)c(C)nn2c1C [Compound C-32.1] | – | 5% | – | No effect (toxic | – |
| Cc1c(C(=O)O)nnc2c(-c3ccccc3)c(-c3ccccc3)nn12 [Compound C-11] | – | 0% | – | No effect | – |

Source: patent US9676779B2, “Small molecule CFTR correctors” (DISCOVERYBIOMED, INC., priority 2012, dated 2017)
